Data on one molecule can be found in US7928138B2, “Marine actinomycete taxon for drug and fermentation product discovery” (Regents of the University of California, priority 2000, dated 2011).

Molecules are shown by their SMILES. In brackets after ≈: the same amount, converted by molar mass.

This experiment concerns HCT-116 human colon carcinoma cell line. Put plainly: Cytotoxicity against human colon carcinoma cell line by MTS assay. As to conditions: pure compound. It is filed as cell-based. The method, then: Assay for the inhibition of growth of colon carcinoma cells and of ovarian cancer cells in vitro. The cytotoxicity of extracts from cells or culture media were assessed in vitro against the human colon carcinoma cell line HCT116 and the human ovarian carcinoma cell line A2780 by MTS assay. Cells were plated at 4,000 cells per well in 96 well microliter plates and, after 24 hours, the extract (dissolved in DMSO or other appropriate solvent) was added and serially diluted. The cells were incubated with the compound at 37° C. for 72 hours, then the tetrazolium dye MTS was added to a final concentration of 333 μg/ml and the electron coupling agent phenazine methosulfate was added to a final concentration of 25 μM. Once reduced, MTS is converted into a […] blue crystal formazan and that was read at an absorbance at 490 nm with a microplate reader. As dead cells are unable to reduce MTS, the amount of formazan is correlated to the number of viable cells. The IC50, the drug concentration required to inhibit proliferation of 50% of the cells, was used as a measure of efficacy.
For orientation: Tetrazolium assays rely on reduction of a dye to a coloured formazan, in cell work by metabolically active cells.

In the case of `C[C@@]12OC(=O)[C@]1([C@@H](O)[C@@H]1C=CCCC1)NC(=O)[C@@H]2CCCl` [salinosporamide A], the “IC50 against the HCT-116 human colon carcinoma cell line” value came out at 0.01 µg/mL (≈ 0.0319 µM).
